Results from the supplement of paper PMC10733146.

Legend:
Test in all cases: viability relative to DMSO control (fraction); higher = less drug effect (more viable cells)
Settings in all cases: 48 h
EPZ-5676 = compound: CC(C)N(C[C@H]1O[C@@H](n2cnc3c(N)ncnc32)[C@H](O)[C@@H]1O)[C@H]1C[C@@H](CCc2nc3cc(C(C)(C)C)ccc3[nH]2)C1 [EPZ-5676]
In short: (§1)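 Viability is given as CellTiter-Glo luminescence relative to the median of 16 inner DMSO wells. Fresh or cryopreserved primary mononuclear tumour cells from blood, bone marrow (both Ficoll-isolated) or processed lymph node were plated at 4 × 10^4 cells per well in 384-well plates against five pre-plated compound concentrations, one well each. Incubation lasted 48 h at 37 °C and 5% CO2 in RPMI-1640 with penicillin/streptomycin, L-glutamine and human serum.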

ONO-4059 = compound: CC#CC(=O)N1CC[C@@H](n2c(=O)n(-c3ccc(Oc4ccccc4)cc3)c3c(N)ncnc32)C1 [ONO-4059]
In short: as §1

Nilotinib = compound: Cc1cn(-c2cc(NC(=O)c3ccc(C)c(Nc4nccc(-c5cccnc5)n4)c3)cc(C(F)(F)F)c2)cn1 [Nilotinib]
In short: as §1

MLN-120B = compound: COc1c(Cl)cc2c([nH]c3cnccc32)c1NC(=O)c1cccnc1C [MLN-120B]
In short: as §1

Row | Test System | viability (EPZ-5676; 0.0032 µM) | viability (EPZ-5676; 0.016 µM) | viability (EPZ-5676; 0.08 µM) | viability (EPZ-5676; 0.4 µM) | viability (EPZ-5676; 2 µM) | viability (ONO-4059; 0.0016 µM) | viability (ONO-4059; 0.008 µM) | viability (ONO-4059; 0.04 µM) | viability (ONO-4059; 0.2 µM) | viability (ONO-4059; 1 µM) | viability (Nilotinib; 0.016 µM) | viability (Nilotinib; 0.08 µM) | viability (Nilotinib; 0.4 µM) | viability (Nilotinib; 2 µM) | viability (Nilotinib; 10 µM) | viability (MLN-120B; 0.024 µM) | viability (MLN-120B; 0.12 µM) | viability (MLN-120B; 0.6 µM) | viability (MLN-120B; 3 µM) | viability (MLN-120B; 15 µM)
1 | primary AML patient cells (S071) | 0.836 | 1.03 | 0.883 | 0.896 | 0.938 | 1.03 | 0.991 | 1.02 | 1.01 | 0.987 | 1.18 | 1.11 | 1.21 | 1.14 | 1.23 | 0.867 | 0.847 | 0.876 | 0.812 | 0.652
2 | primary AML patient cells (S072) | 0.86 | 1.09 | 0.96 | 0.883 | 1.07 | 1.3 | 0.906 | 0.925 | 0.935 | 0.972 | 1.16 | 1.11 | 1.2 | 1.13 | 1.23 | 0.899 | 0.891 | 1.04 | 0.858 | 0.795
3 | primary AML patient cells (S079) | 0.897 | 1.01 | 0.876 | 0.944 | 0.933 | 0.891 | 0.863 | 0.868 | 1.03 | 0.934 | 1.17 | 1.11 | 1.13 | 1.11 | 1.18 | 0.884 | 0.883 | 0.899 | 0.82 | 0.781
4 | primary AML patient cells (S081) | 0.901 | 1.08 | 0.971 | 1.02 | 1.09 | 0.978 | 1.02 | 0.98 | 1.04 | 1.07 | 1.17 | 1.03 | 1.16 | 1.12 | 1.2 | 0.883 | 0.927 | 0.904 | 0.881 | 0.828
5 | primary AML patient cells (S085) | 1.27 | 1.21 | 0.921 | 0.901 | 1.08 | 1.17 | 0.918 | 0.956 | 0.923 | 1.02 | 1.07 | 1.13 | 1.13 | 1.06 | 1.18 | 0.867 | 0.936 | 0.842 | 0.839 | 0.627
6 | primary AML patient cells (S089) | 1.05 | 1.03 | 1.32 | 0.907 | 1.2 | 0.624 | 0.893 | 0.701 | 0.941 | 0.606 | 1.14 | 1.05 | 0.798 | 1 | 1.18 | 0.612 | 0.714 | 0.556 | 0.655 | 0.432
7 | primary AML patient cells (S091) | 0.953 | 0.965 | 0.931 | 1.04 | 0.991 | 0.947 | 0.977 | 0.951 | 0.978 | 1.02 | 1.05 | 1.07 | 1.13 | 0.991 | 1.06 | 0.881 | 0.865 | 0.902 | 0.881 | 0.798
8 | primary B-PLL patient cells (S016) | 0.991 | 1.09 | 0.93 | 0.971 | 1.05 | 0.701 | 0.554 | 0.553 | 0.491 | 0.577 | 1.31 | 1.07 | 1.11 | 1.09 | 1.16 | 0.915 | 0.98 | 0.926 | 0.887 | 0.716
9 | primary BL patient cells (S005) | 1.54 | 1.13 | 1.46 | 1.35 | 1 | 1.07 | 1.12 | 1.06 | 1.15 | 1.07 | 1.08 | 1.02 | 1.07 | 1.03 | 1.02 | 0.979 | 1.01 | 0.981 | 1.01 | 0.861
10 | primary CLL patient cells (S031) | 0.887 | 0.952 | 0.895 | 0.881 | 0.925 | 0.831 | 0.829 | 0.719 | 0.749 | 0.72 | 1.09 | 1.12 | 1.16 | 1.13 | 1.09 | 0.859 | 0.889 | 0.836 | 0.813 | 0.719
11 | primary CLL patient cells (S043) | 1.06 | 1.28 | 1.13 | 1.02 | 0.951 | 0.789 | 0.742 | 0.688 | 0.72 | 0.723 | 1.17 | 1.08 | 1.12 | 1.06 | 1.22 | 0.817 | 0.838 | 0.837 | 0.827 | 0.797
12 | primary DLBCL patient cells (S082) | 0.925 | 1.1 | 0.88 | 0.953 | 1.1 | 0.786 | 0.587 | 0.483 | 0.413 | 0.391 | 1.06 | 1.04 | 1.09 | 1.08 | 1.11 | 0.845 | 0.83 | 0.856 | 0.819 | 0.717
13 | primary FL patient cells (S022) | 0.873 | 1 | 0.884 | 0.856 | 0.96 | 1.05 | 1.02 | 1.06 | 0.985 | 1.13 | 0.974 | 1.1 | 0.985 | 0.933 | 1.03 | 0.946 | 0.96 | 0.916 | 0.896 | 0.758
14 | primary FL patient cells (S087) | 0.916 | 0.987 | 0.92 | 0.919 | 0.975 | 0.985 | 0.965 | 1.02 | 0.92 | 0.983 | 0.964 | 1.07 | 1.03 | 1.05 | 1.01 | 0.95 | 0.954 | 0.96 | 0.947 | 0.781
